From US20190064149A1, “CANCER EXAMINATION METHOD AND EXAMINATION KIT” (THE UNIVERSITY OF TOKYO, priority 2013, published 2019)

Target: T1, MT1-MMP (Homo sapiens, UniProt P50281)
T1 construct: expressed in transfected cells; host or cells: HT1080 (human fibrosarcoma) stably expressing c-myc-EphA2, transiently transfected with pSG-MT1-MMP
Experiment: EphA2 processing by MT1-MMP in HT1080 cells forcibly expressing MT1-MMP and Myc-labeled EphA2, western blotting
Format: cell-based
Procedure: HT1080 cells expressing c-myc-EphA2 stably were prepared by a ViraPower™ lentiviral expression system using a plenti-c-myc-EphA2 vector in HT1080 and expression vectors (pSG-MT1-6-MMPs) of MT1-6-MMPs were transiently introduced into the resulting cells. EphA2 and MT1-MMP were detected by western blotting using an anti-Myc polyclonal antibody and an anti-MT1-MMP monoclonal antibody. Respective expression vectors of the MT-MMPs were introduced using FuGene6 (Rhoche). Expression of c-myc-EphA2 and wild type MT1-MMP was confirmed by solubilizing each of the cells (10 cm) by RIPA and then performing immunoprecipitation (IP) of EphA2 and stud thereof by an anti C-myc antibody. In order to inhibit the protease activity of MT1-MMP, BB94 or TIMP-2 was added as an MMP inhibitor to a culture solution.

## CNC(=O)[C@H](Cc1ccccc1)NC(=O)[C@H](CC(C)C)[C@H](CSc1cccs1)C(=O)NO [BB94]
HT1080 cells co-expressing Myc-EphA2 and wild type MT1-MMP
  EphA2 species purified by immunoprecipitation with Myc antibody: only a full length type EphA2
HT1080 cells forcibly expressing MT1-MMP, inhibitor added to culture solution
  production of 65 and 60 kDa EphA2 processed fragments: suppressed
